Data from patent publication US11130769B2 (Prelude Therapeutics Incorporated, priority 2018, dated 2021).
Like-named read-outs stand apart in the source and are kept apart here.

How the values were obtained:
MCL-1 = MCL-1 (Homo sapiens (Human), UniProt Q07820); assay: Cell free Mcl-1:Bim affinity assay (fluorescence polarization competition); assay type: binding; settings: 15 nM MCL-1, 5 nM FITC-Bim, 1 hour at room temperature, read-out: BIM_Ki
Protocol: The binding affinity of each compound was measured via a fluorescence polarization competition assay, in which the compound competes for the same binding site with the ligand, and thus leads to a dose-dependent anisotropy reduction. The tracer ligand utilized was a fluorescein isothiocyanate labelled peptide (FITC-[…]) derived from Bim (GenScript).
The assay was carried out in black half-area 96-well NBS plate (Corning), containing 15 nM of MCL-1 (BPS Bioscience), 5 nM of FITC-Bim and 3-fold serial diluted test compounds in a total volume of 50 μL of assay buffer (20 mM HEPES, 50 mM NaCl, 0.002% Tween 20, 1 mM TCEP, and 1% DMSO). The reaction plate was incubated for 1 hour at room temperature. The change of anisotropy is measured with an Envision multimode plate reader (PerkinElmer) at emission wavelength 535 nm. Fluorescence polarization was calculated in mP unit and the percentage inhibition was calculated by % inhibition=100×(mPDMSO−mP)/(mPDMSO−mPPC), in which mPDMSO is the DMSO control, and mPpc is the positive control. IC50 values were determined from a 10-point dose response curve by fitting the percent inhibition against compound concentration using the GraphPad Prism software. The inhibition constant Ki was subsequently calculated according to the Nikolovska-Coleska's equation (Anal. Biochem., 2004, 332, 261),
[formula] • where [I]50 is the concentration of the free inhibitor at 50% inhibition, [L]50 is the concentration of the free labeled ligand at 50% inhibition, [P]0 is the concentration of the free protein at 0% inhibition, and Kd is the dissociation constant of the protein-ligand complex. See Table F. Caspase 3/7 Activity Assay

H929 cells = assay: Cell viability assay (H929 10 FBS); assay type: cell-based; settings: Homo sapiens, NCI-H929, 24 hours, read-out: H929_10FBS IC50
Protocol: Cell Viability Assay (H929 10 FBS)
Dispense 10 μL aliquot of prepared H929 cells (1:1 ratio of cells:Trypan Blue (#1450013, Bio-Rad)) onto cell counting slide (#145-0011, Bio-Rad) and obtain cell density and cell viability using cell counter (TC20, Bio-Rad). Remove appropriate volume of resuspended cells from culture flask to accommodate 4000 cells/well @ 10 μL/well. Transfer H929 cells to 50 mL conical (#430290, Corning). Spin down at 1000 rpm for 5 min using tabletop centrifuge (SPINCHRON 15, Beckman). Discard supernatant and resuspend cell pellet in modified RPMI 1640 (#10-040-CV, Corning) cell culture media containing 10% FBS (F2422-500 ML, Sigma), sodium pyruvate (100 mM) (#25-000-CL, Corning), HEPES buffer (1 M) (#25-060-CL, Corning) and glucose (200 g/L) (A24940-01, Gibco) to a cell density of 400,000 cells/mL. Dispense 10 μL of resuspended H929 cells per well in 384-well small volume TC treated plate (#784080, Greiner Bio-one) using standard cassette (#50950372, Thermo Scientific) on Multi-drop Combi (#5840310, Thermo Scientific) in laminar flow cabinet. Dispense compounds onto plates using digital liquid dispenser (D300E, Tecan). Incubate plates in humidified tissue culture incubator @ 37° C. for 24 hours. Add 10 μL of prepared CellTiTer-Glo® detection buffer (G7570, Promega) or ATPlite 1 Step detection reagent (#6016731, Perkin Elmer) to each well of 384-well plate using small tube cassette (#24073295, Thermo Scientific) on Combi multi drop, incubate @ RT for 30-60 min. Read plates with microplate reader (PheraStar, BMG Labtech) using 384 well luminescence mode.

Sequence of MCL-1 (Q07820 whole entry): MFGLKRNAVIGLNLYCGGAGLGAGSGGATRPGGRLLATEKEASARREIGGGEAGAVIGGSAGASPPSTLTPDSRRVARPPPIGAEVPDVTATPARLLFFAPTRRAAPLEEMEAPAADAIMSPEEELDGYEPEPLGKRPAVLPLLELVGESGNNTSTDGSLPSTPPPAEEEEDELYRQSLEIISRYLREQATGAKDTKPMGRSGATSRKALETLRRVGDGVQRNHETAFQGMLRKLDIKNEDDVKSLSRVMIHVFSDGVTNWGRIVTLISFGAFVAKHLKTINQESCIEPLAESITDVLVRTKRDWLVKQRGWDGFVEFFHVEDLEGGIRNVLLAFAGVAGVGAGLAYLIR

Ki (MCL-1; numeric values) [nM] | IC50 (H929 cells) [nM] | Ki (MCL-1; class symbols) [nM] | SMILES
21.8 | > 1000 | – | O=C(CCc1ccncc1)NS(=O)(=O)c1ccc2c(c1)N(CC1CCC1)C[C@@]1(CCCc3cc(Cl)ccc31)CO2 (racemic) [Example 20, 3-Pyridin-4-yl-N-[rac-(3S)-6′-chloro-5-(cyclobutylmethyl)spiro[2,4-dihydro-1,5-benzoxazepine-3,1′-tetralin]-7-yl]sulfonyl-propanamide]
– | < 500 | 1 to 100 | CN1C/C=C/[C@H](OC(=O)N2CCN3CCOCC3C2)[C@@H]2CC[C@H]2CN2C[C@@]3(CCCc4cc(Cl)ccc43)COc3ccc(cc32)S(=O)(=O)NC(=O)C1(C)C (stereo in doubt) [Example 208, [(3R,6R,7S,8E,22S)-6′-Chloro-11,12,12-trimethyl-13,15,15-trioxo-spiro[20-oxa-15-thia-1,11,14-triazatetracyclo[14.7.2.03,6.019,24]pentacosa-8,16,18,24-tetraene-22,1′-tetralin]-7-yl] (9aS)-3,4,6,7,9,9a-hexahydro-1H-pyrazino[2,1-c][1,4]oxazine-8-carboxylate]
45.6 | > 1000 | – | CC(=O)NS(=O)(=O)c1ccc2c(c1)N(CC1CCC1)CC1(CCCc3cc(Cl)ccc31)CO2 (stereo not drawn) [Example 1, N-[6′-Chloro-5-(cyclobutylmethyl)spiro[2,4-dihydro-1,5-benzoxazepine-3,1′-tetralin]-7-yl]sulfonylacetamide]
207 | > 1000 | – | CC(=O)NS(=O)(=O)c1ccc2c(c1)N(Cc1ccccc1)CC1(CCCc3cc(Cl)ccc31)CO2 (stereo not drawn) [Example 4, N-(5-Benzyl-6′-chloro-spiro[2,4-dihydro-1,5-benzoxazepine-3,1′-tetralin]-7-yl)sulfonylacetamide]
35.7 | > 1000 | – | CC(C)C(=O)NS(=O)(=O)c1ccc2c(c1)N(CC1CCC1)CC1(CCCc3cc(Cl)ccc31)CO2 (stereo not drawn) [Example 6, N-[6′-Chloro-5-(cyclobutylmethyl)spiro[2,4-dihydro-1,5-benzoxazepine-3,1′-tetralin]-7-yl]sulfonyl-2-methyl-propanamide]
15.8 | > 1000 | – | CC(=O)NS(=O)(=O)c1ccc2c(c1)N(CC1CCC1)C[C@@]1(CCCc3cc(Cl)ccc31)CO2 [Example 12, N-[(3S)-6′-Chloro-5-(cyclobutylmethyl)spiro[2,4-dihydro-1,5-benzoxazepine-3,1′-tetralin]-7-yl]sulfonylacetamide]
– | < 500 | – | CN(C)C[C@H]1CCCN1C(=O)O[C@H]1/C=C/COC(C)(C)C(=O)NS(=O)(=O)c2ccc3c(c2)N(C[C@@H]2CC[C@H]21)C[C@@]1(CCCc2cc(Cl)ccc21)CO3 [Example 169]
– | < 500 | – | CCO[C@@H]1CCN(C(=O)O[C@H]2/C=C/COC(C)(C)C(=O)NS(=O)(=O)c3ccc4c(c3)N(C[C@@H]3CC[C@H]32)C[C@@]2(CCOc3cc(Cl)ccc32)CO4)C1 [Example 308]
– | < 500 | – | CN(C)C1CN(C(=O)O[C@H]2/C=C/COC(C)(C)C(=O)NS(=O)(=O)c3ccc4c(c3)N(C[C@@H]3CC[C@H]32)C[C@@]2(CCOc3cc(Cl)ccc32)CO4)C1 [Example 311]

Second part, the molecule before the results:

SMILES | Ki (MCL-1; numeric values) [nM] | IC50 (H929 cells) [nM] | Ki (MCL-1; class symbols) [nM]
CC(=O)NS(=O)(=O)c1ccc2c(c1)N(CC1C[C@@H](C)O[C@@H](C)C1)CC1(CCCc3cc(Cl)ccc31)CO2 (mixture of isomers) [Example 8, N-[6′-Chloro-5-[[rac-(2S,6R)-2,6-dimethyltetrahydropyran-4-yl]methyl]spiro[2,4-dihydro-1,5-benzoxazepine-3,1′-tetralin]-7-yl]sulfonylacetamide] | 424 | > 1000 | –
O=C(NS(=O)(=O)c1ccc2c(c1)N(CC1CCC1)C[C@@]1(CCCc3cc(Cl)ccc31)CO2)OCc1ccccc1 (stereo in doubt) [Example 14, Benzyl N-[6′-chloro-5-(cyclobutylmethyl)spiro[2,4-dihydro-1,5-benzoxazepine-3,1′-tetralin]-7-yl]sulfonylcarbamate] | 222 | – | –
CC(=O)NS(=O)(=O)c1ccc2c(c1)N(CC1CC1)CC1(CCCc3cc(Cl)ccc31)CO2 (stereo not drawn) [Example 2, N-[6′-Chloro-5-(cyclopropylmethyl)spiro[2,4-dihydro-1,5-benzoxazepine-3,1′-tetralin]-7-yl]sulfonylacetamide] | 179 | > 1000 | –
CC(=O)NS(=O)(=O)c1ccc2c(c1)N(CC1CCCCC1)CC1(CCCc3cc(Cl)ccc31)CO2 (stereo not drawn) [Example 3, N-[6′-Chloro-5-(cyclohexylmethyl)spiro[2,4-dihydro-1,5-benzoxazepine-3,1′-tetralin]-7-yl]sulfonylacetamide] | 143 | > 1000 | –
O=C(Cc1ccccc1)NS(=O)(=O)c1ccc2c(c1)N(CC1CCC1)CC1(CCCc3cc(Cl)ccc31)CO2 (stereo not drawn) [Example 5, N-[6′-Chloro-5-(cyclobutylmethyl)spiro[2,4-dihydro-1,5-benzoxazepine-3,1′-tetralin]-7-yl]sulfonyl-2-phenyl-acetamide] | 37.3 | > 1000 | –
O=C(NS(=O)(=O)c1ccc2c(c1)N(CC1CCC1)CC1(CCCc3cc(Cl)ccc31)CO2)c1ccc(Cl)cc1 (stereo not drawn) [Example 7, 4-Chloro-N-[6′-chloro-5-(cyclobutylmethyl)spiro[2,4-dihydro-1,5-benzoxazepine-3,1′-tetralin]-7-yl]sulfonyl-benzamide] | 227 | – | –
CC(=O)NS(=O)(=O)c1ccc2c(c1)N(Cc1cnn(C)c1)CC1(CCCc3cc(Cl)ccc31)CO2 (stereo not drawn) [Example 9, N-[6′-Chloro-5-[(1-methylpyrazol-4-yl)methyl]spiro[2,4-dihydro-1,5-benzoxazepine-3,1′-tetralin]-7-yl]sulfonylacetamide] | 1640 | > 1000 | –
C=CCCCC(=O)NS(=O)(=O)c1ccc2c(c1)N(Cc1cnn(CC=C)c1)CC1(CCCc3cc(Cl)ccc31)CO2 (stereo not drawn) [Example 10, N-[5-[(1-Allylpyrazol-4-yl)methyl]-6′-chloro-spiro[2,4-dihydro-1,5-benzoxazepine-3,1′-tetralin]-7-yl]sulfonylhex-5-enamide] | 1430 | > 1000 | –
CO[C@H]1/C=C/CN2CCC[C@H]2C(=O)NS(=O)(=O)c2ccc3c(c2)N(C[C@@H]2CC[C@H]21)C[C@@]1(CCCc2cc(Cl)ccc21)CO3 [Example 100] | – | > 1000 | –
CO[C@@H]1/C=C/CN(C)C(=O)NS(=O)(=O)c2ccc3c(c2)N(C[C@@H]2CC[C@H]21)C[C@@]1(CCCc2cc(Cl)ccc21)CO3 [Example 108, (3R,6R,7R,8E,21S)-6′-Chloro-7-methoxy-11-methyl-14,14-dioxo-spiro[19-oxa-14-thia-1,11,13-triazatetracyclo[3.7.2.03,6.018,23]tetracosa-8,15,17,23-tetraene-21,1′-tetralin]-12-one] | – | > 1000 | –
CN1C/C=C/[C@H](OC(=O)NC2CC2)[C@@H]2CC[C@H]2CN2C[C@@]3(CCCc4cc(Cl)ccc43)COc3ccc(cc32)S(=O)(=O)NC(=O)C1(C)C [Example 206] | – | < 500 | –
CCOC(=O)N(C)[C@@H]1/C=C/COC(C)(C)C(=O)NS(=O)(=O)c2ccc3c(c2)N(C[C@@H]2CC[C@H]21)C[C@@]1(CCCc2cc(Cl)ccc21)CO3 [Example 252] | – | > 1000 | –
CN(C)CCN(C)C(=O)O[C@H]1/C=C/COC(C)(C)C(=O)NS(=O)(=O)c2ccc3c(c2)N(C[C@@H]2CC[C@H]21)C[C@@]1(CCOc2cc(Cl)ccc21)CO3 [Example 307] | – | < 500 | –
COC1CN(C(=O)O[C@H]2/C=C/COC(C)(C)C(=O)NS(=O)(=O)c3ccc4c(c3)N(C[C@@H]3CC[C@H]32)C[C@@]2(CCOc3cc(Cl)ccc32)CO4)C1 [Example 309] | – | < 1000 | –
CN(C)[C@@H]1CCN(C(=O)O[C@H]2/C=C/COC(C)(C)C(=O)NS(=O)(=O)c3ccc4c(c3)N(C[C@@H]3CC[C@H]32)C[C@@]2(CCOc3cc(Cl)ccc32)CO4)C1 [Example 310] | – | < 500 | –
